Data from EP4707284A1, “HETEROCYCLIC COMPOUND AND USE THEREOF” (Otsuka Pharmaceutical Co., Ltd., priority 2023, dated 2024).

Type: physicochemical
Settings: Tris-hydrochloric acid buffer (pH 7.5) 50 mmol/L, magnesium chloride 5 mmol/L, evaluation compound 1 µmol/L, 37°C, 60 minutes, average of duplicate
Description: The conversion from the evaluation compounds to brexpiprazole in a buffer (i.e., the stability of the evaluation compounds) was evaluated.
The Example 1 compound was dissolved in acetonitrile/water (1:1, v/v) to 10 mmol/L and further diluted with acetonitrile/water (1:1, v/v) to 100 µmol/L for use.
The other Example compounds and the Reference Example 5 compound to Reference Example 7 compound were each dissolved in DMSO to 10 mmol/L and further diluted with acetonitrile to 100 µmol/L for use, except for the following compounds.
The compounds of Examples 52, 95, 96, 117, and 130 (EX 52, EX 95, EX 96, EX 117, and EX 130) were dissolved in acetonitrile/water (8:2, v/v) to 10 mmol/L and further diluted with acetonitrile to 100 µmol/L for use.
The compound of Example 97 (EX 97) was dissolved in acetonitrile/water (8:2, v/v) to 10 mmol/L and further diluted with acetonitrile/water (8:2, v/v) to 100 µmol/L for use.
The compounds of Examples 15 and 116 (EX 15 and EX 116) were dissolved in DMSO to 1 mmol/L and further diluted with acetonitrile to 100 µmol/L for use.
These evaluation compound solutions were prepared at the time of use.
The reaction was conducted by preparing each reaction solution such that the final concentration of each component was as follows. The test was conducted in duplicate.
For the compounds of Examples 1 to 8, 10 to 19, 26 to 27, 37, 50, 87 to 89, 91, 116, 121, 123, 150, and 151 (EX 1 to EX 8, EX 10 to EX 19, EX 26 to EX 27, EX 37, EX 50, EX 87 to EX 89, EX 91, EX 116, EX 121, EX 123, EX 150, and EX 151), and the compounds of Reference Examples 5 to 7 (REX 5 to REX 7), the reaction solution without the evaluation compound (198 µl) was pre-incubated at 37°C for 3 minutes, and then each of the evaluation compound solutions (2 µl) was added and stirred; thereafter, the reaction was started at 37°C. At 0 minutes or 60 minutes after the start of the reaction, the reaction was stopped by adding and stirring a reaction stop solution (1000 µl) composed of acetonitrile/isopropanol (4:1, v/v) containing internal standard substances. However, the 0-minute reaction sample (198 µl) was prepared by adding the evaluation compound (2 µl) after adding the reaction stop solution (1000 µl). The samples after stopping the reaction were used as the measurement samples. Calibration curve samples with the same composition were prepared (final concentrations of the evaluation compounds and brexpiprazole: 0.01, 0.1, and 1 µmol/L, with the proviso that for the evaluation compounds only, the 0-minute reaction samples were also used as calibration curve samples for 1 µmol/L).
For the compounds of Examples 24 to 25, 28 to 29, 32 to 36, 40 to 49, 51 to 60, 62 to 64, 66 to 77, 80 to 86, 90, 92 to 111, 113, 115, 117 to 120, 122, 124 to 130, 132 to 147, and 152 to 160 (EX 24 to EX 25, EX 28 to EX 29, EX 32 to EX 36, EX 40 to EX 49, EX 51 to EX 60, EX 62 to EX 64, EX 66 to EX 77, EX 80 to EX 86, EX 90, EX 92 to EX 111, EX 113, EX 115, EX 117 to EX 120, EX 122, EX 124 to EX 130, EX 132 to EX 147, and EX 152 to EX 160), the reaction solution without the evaluation compound (148.5 µl) was pre-incubated at 37°C for 3 minutes, and then each of the evaluation compound solutions (1.5 µl) was added and stirred; thereafter, the reaction was started at 37°C. At 0 minutes or 60 minutes after the start of the reaction, the reaction was stopped by adding and stirring a reaction stop solution (600 µl) composed of acetonitrile/isopropanol (4:1, v/v) containing internal standard substances. However, the 0-minute reaction sample (148.5 µl) was prepared by adding the evaluation compound (1.5 µl) after adding the reaction stop solution (600 µl). The samples after stopping the reaction were used as the measurement samples. […]

Question: With `O=c1ccc2ccc(OCCCC[N+]3(COP(=O)([O-])OCC4CC4)CCN(c4cccc5sccc45)CC3)cc2[nH]1` [EX 91] as the compound, how does the “Concentration of brexpiprazole formed” value read?
Answer: 0.00 µM

Question: And the “Concentration of evaluation compound decreased” value?
Answer: 0.12 µM

Question: Which “Concentration of brexpiprazole formed” value does the source give for `O=c1ccc2ccc(OCCCC[N+]3(COP(=O)([O-])OCCCCCO)CCN(c4cccc5sccc45)CC3)cc2[nH]1` [EX 92] here?
Answer: 0.00 µM

Question: And the “Concentration of evaluation compound decreased” value?
Answer: 0.11 µM

Question: Which “Concentration of brexpiprazole formed” value does the source give for `O=c1ccc2ccc(OCCCC[N+]3(COP(=O)([O-])OCCOCCO)CCN(c4cccc5sccc45)CC3)cc2[nH]1` [EX 93] here?
Answer: 0.00 µM

Question: And the “Concentration of evaluation compound decreased” value?
Answer: -0.01 µM

Question: With `CCOCCOP(=O)([O-])OC[N+]1(CCCCOc2ccc3ccc(=O)[nH]c3c2)CCN(c2cccc3sccc23)CC1` [EX 94] as the compound, how does the “Concentration of brexpiprazole formed” value read?
Answer: 0.00 µM

Question: What about the “Concentration of evaluation compound decreased” value of the same compound?
Answer: -0.07 µM

Question: Which “Concentration of brexpiprazole formed” value does the source give for `CCCOCCOP(=O)([O-])OC[N+]1(CCCCOc2ccc3ccc(=O)[nH]c3c2)CCN(c2cccc3sccc23)CC1` [EX 95] here?
Answer: 0.00 µM

Question: And the “Concentration of evaluation compound decreased” value?
Answer: -0.01 µM

Question: Which “Concentration of brexpiprazole formed” value does the source give for `CCCCOCCOP(=O)([O-])OC[N+]1(CCCCOc2ccc3ccc(=O)[nH]c3c2)CCN(c2cccc3sccc23)CC1` [EX 96] here?
Answer: 0.00 µM

Question: And the “Concentration of evaluation compound decreased” value?
Answer: 0.03 µM

Question: For `CCOCCCOP(=O)([O-])OC[N+]1(CCCCOc2ccc3ccc(=O)[nH]c3c2)CCN(c2cccc3sccc23)CC1` [EX 97], which “Concentration of brexpiprazole formed” value is on record?
Answer: 0.00 µM

Question: And the “Concentration of evaluation compound decreased” value?
Answer: 0.09 µM

Question: Which “Concentration of brexpiprazole formed” value does the source give for `CCOCCOCCOP(=O)([O-])OC[N+]1(CCCCOc2ccc3ccc(=O)[nH]c3c2)CCN(c2cccc3sccc23)CC1` [EX 98] here?
Answer: 0.00 µM

Question: What about the “Concentration of evaluation compound decreased” value of the same compound?
Answer: -0.02 µM

Question: For `CC1(C)O[C@H]2[C@@H](O1)[C@@H](COP(=O)([O-])OC[N+]1(CCCCOc3ccc4ccc(=O)[nH]c4c3)CCN(c3cccc4sccc34)CC1)O[C@@H]1OC(C)(C)O[C@@H]12` [EX 100], which “Concentration of brexpiprazole formed” value is on record?
Answer: 0.00 µM

Question: What about the “Concentration of evaluation compound decreased” value of the same compound?
Answer: 0.05 µM

Question: With `CC(=O)OCCCCCCOP(=O)([O-])OC[N+]1(CCCCOc2ccc3ccc(=O)[nH]c3c2)CCN(c2cccc3sccc23)CC1` [EX 101] as the compound, how does the “Concentration of brexpiprazole formed” value read?
Answer: 0.00 µM

Question: And the “Concentration of evaluation compound decreased” value?
Answer: 0.08 µM

Question: With `CC(C)(C)C(=O)OCCCCCCOP(=O)([O-])OC[N+]1(CCCCOc2ccc3ccc(=O)[nH]c3c2)CCN(c2cccc3sccc23)CC1` [EX 102] as the compound, how does the “Concentration of brexpiprazole formed” value read?
Answer: 0.00 µM

Question: And the “Concentration of evaluation compound decreased” value?
Answer: 0.07 µM

Question: Which “Concentration of brexpiprazole formed” value does the source give for `CCOC(=O)[C@@H](C)OP(=O)([O-])OC[N+]1(CCCCOc2ccc3ccc(=O)[nH]c3c2)CCN(c2cccc3sccc23)CC1` [EX 103] here?
Answer: 0.00 µM

Question: And the “Concentration of evaluation compound decreased” value?
Answer: -0.01 µM

Question: Which “Concentration of brexpiprazole formed” value does the source give for `CCOC(=O)[C@H](C)OP(=O)([O-])OC[N+]1(CCCCOc2ccc3ccc(=O)[nH]c3c2)CCN(c2cccc3sccc23)CC1` [EX 104] here?
Answer: 0.00 µM

Question: And the “Concentration of evaluation compound decreased” value?
Answer: 0.20 µM

Question: What does the source list for `CC(C)OC(=O)[C@@H](C)OP(=O)([O-])OC[N+]1(CCCCOc2ccc3ccc(=O)[nH]c3c2)CCN(c2cccc3sccc23)CC1` [EX 105]?
Answer: Concentration of brexpiprazole formed: 0.00 µM; Concentration of evaluation compound decreased: 0.05 µM

Question: For `C[C@@H](OP(=O)([O-])OC[N+]1(CCCCOc2ccc3ccc(=O)[nH]c3c2)CCN(c2cccc3sccc23)CC1)C(=O)OC(C)(C)C` [EX 106], which “Concentration of brexpiprazole formed” value is on record?
Answer: 0.00 µM

Question: And the “Concentration of evaluation compound decreased” value?
Answer: 0.07 µM

Question: Which “Concentration of brexpiprazole formed” value does the source give for `CC(C)COC(=O)[C@@H](C)OP(=O)([O-])OC[N+]1(CCCCOc2ccc3ccc(=O)[nH]c3c2)CCN(c2cccc3sccc23)CC1` [EX 107] here?
Answer: 0.00 µM

Question: And the “Concentration of evaluation compound decreased” value?
Answer: 0.07 µM

Question: Which results are given for `CCC(CC)COC(=O)[C@@H](C)OP(=O)([O-])OC[N+]1(CCCCOc2ccc3ccc(=O)[nH]c3c2)CCN(c2cccc3sccc23)CC1` [EX 108]?
Answer: Concentration of brexpiprazole formed: 0.00 µM; Concentration of evaluation compound decreased: 0.08 µM
